Experimental findings from PubChem BioAssay (NCI) are described below.

The structures appear in SMILES notation.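 48-hour exposure; five concentrations; linearly interpolated endpoints. TGI: total growth inhibition.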

Some test systems named below: ACHN renal; HS 578T breast; IGROV1 ovarian; K-562 leukemia; KM12 colon; M14 melanoma; MALME-3M melanoma; MDA-MB-231 breast; MOLT-4 leukemia; NCI-H226 lung; NCI-H522 lung; NCI/ADR-RES ovarian; OVCAR-3 ovarian; OVCAR-4 ovarian; PC-3 prostate; SNB-19 CNS; SW-620 colon; T-47D breast; UACC-257 melanoma; UO-31 renal.
What all share (test): NCI-60 cell line screen, 48 h

As for `CN(C)CCCNC(=O)c1cc(NS(=O)(=O)c2ccc3c(c2)C(=O)c2ccccc2C3=O)cn1C`, the TGI was 49.5 µM in the experiment on ACHN renal; greater than 100 µM in the experiment with HS 578T breast; 75.1 µM in the experiment on IGROV1 ovarian; greater than 100 µM with K-562 leukemia; 41.1 µM with KM12 colon; 62.8 µM in the experiment with M14 melanoma. The TGI in the experiment with MALME-3M melanoma was 18.7 µM; with MDA-MB-231 breast, 85.5 µM; in the experiment with MOLT-4 leukemia, greater than 100 µM; in the experiment with NCI-H226 lung it was 42.5 µM; in the experiment on NCI-H522 lung it was 52.5 µM; with NCI/ADR-RES ovarian, greater than 100 µM. In addition, the TGI in the experiment on OVCAR-3 ovarian is greater than 100 µM; with OVCAR-4 ovarian, 36.8 µM; with PC-3 prostate, greater than 100 µM; in the experiment on SNB-19 CNS it was 39.6 µM; in the experiment on SW-620 colon it was greater than 100 µM; in the experiment with T-47D breast, greater than 100 µM. Moreover, the TGI in the experiment on UACC-257 melanoma was 37.6 µM; in the experiment with UO-31 renal it was greater than 100 µM.

On to `COc1cc2cc3c4c(cc(OC)c(OC)c4c2cc1OC)CCN3C`, for which the TGI in the experiment on ACHN renal was 31.7 µM; in the experiment with HS 578T breast, greater than 50 µM; in the experiment with IGROV1 ovarian, greater than 43.7 µM; with K-562 leukemia, greater than 50 µM; in the experiment with KM12 colon, greater than 50 µM; with M14 melanoma it was greater than 50 µM. Further, the TGI with MALME-3M melanoma was 24.9 µM; with MDA-MB-231 breast, greater than 44.1 µM; in the experiment with MOLT-4 leukemia, greater than 31.4 µM; with NCI-H226 lung, 26.7 µM; in the experiment with NCI-H522 lung, 23.9 µM; in the experiment on NCI/ADR-RES ovarian, greater than 48.2 µM. The TGI with OVCAR-3 ovarian was 31.9 µM; in the experiment with OVCAR-4 ovarian, 12 µM; with PC-3 prostate it was greater than 29.9 µM; in the experiment on SNB-19 CNS it was greater than 50 µM; in the experiment on SW-620 colon it was greater than 50 µM; in the experiment with T-47D breast it was 4.1 µM. Further, the results for the TGI with UACC-257 melanoma and in the experiment on UO-31 renal were 27.3 µM and 40.6 µM, respectively.

Regarding `O=c1oc2ccccc2c(O)c1C(c1ccc(-c2ccccc2)cc1)c1c(O)c2ccccc2oc1=O`, the TGI with ACHN renal was 60.4 µM; in the experiment with HS 578T breast, 60.4 µM; in the experiment with IGROV1 ovarian it was greater than 100 µM; in the experiment on K-562 leukemia, greater than 100 µM; with KM12 colon it was 38.1 µM; in the experiment with MALME-3M melanoma it was 65 µM. Also, the TGI is 48.8 µM with MDA-MB-231 breast; greater than 100 µM in the experiment with MOLT-4 leukemia; 69 µM in the experiment with NCI-H226 lung; 66.7 µM in the experiment with NCI-H522 lung; 58.6 µM in the experiment with NCI/ADR-RES ovarian; 58.7 µM in the experiment on OVCAR-3 ovarian. In addition, the TGI was greater than 100 µM in the experiment on OVCAR-4 ovarian; 56.4 µM in the experiment with PC-3 prostate; greater than 100 µM in the experiment with SNB-19 CNS; 33.2 µM with SW-620 colon; greater than 100 µM with T-47D breast; greater than 100 µM in the experiment on UACC-257 melanoma. In addition, the TGI in the experiment with UO-31 renal is 31.6 µM.

For `CCS(=O)c1c2cc(OC)ccc2nc2ccc(OC)cc12` (stereo not drawn), the TGI with ACHN renal is 13 µM; with HS 578T breast, 38.9 µM; in the experiment on IGROV1 ovarian, 10 µM; in the experiment with K-562 leukemia, 5.81 µM; with KM12 colon it was 41 µM; in the experiment with M14 melanoma, 37.6 µM. The TGI is 12.6 µM in the experiment with MALME-3M melanoma; 11.2 µM with MDA-MB-231 breast; greater than 23.8 µM in the experiment with MOLT-4 leukemia; 47.8 µM in the experiment on NCI-H226 lung; 3.97 µM in the experiment with NCI-H522 lung; 44.6 µM in the experiment on NCI/ADR-RES ovarian. Besides, the TGI in the experiment on OVCAR-3 ovarian was 14.9 µM; in the experiment on OVCAR-4 ovarian, 36.1 µM; in the experiment with PC-3 prostate, 24.9 µM; with SNB-19 CNS, 45.4 µM; with SW-620 colon, greater than 65.9 µM; in the experiment with T-47D breast, 5.85 µM. The TGI was found to be 12 µM in the experiment on UACC-257 melanoma and 13.1 µM in the experiment on UO-31 renal.

`COc1ccc(CNc2nc(NCc3ccc(OC)cc3)nc(NC3CCCC3)n2)cc1`: the TGI in the experiment on ACHN renal is greater than 100 µM; with HS 578T breast it was greater than 21.3 µM; with IGROV1 ovarian it was greater than 33.7 µM; with K-562 leukemia, greater than 24.7 µM; in the experiment with KM12 colon, 1.59 µM; in the experiment with M14 melanoma, greater than 100 µM. The TGI in the experiment on MALME-3M melanoma is greater than 100 µM; in the experiment on MDA-MB-231 breast, greater than 31.2 µM; in the experiment on MOLT-4 leukemia, greater than 100 µM; in the experiment on NCI-H226 lung, greater than 55.8 µM; with NCI-H522 lung, greater than 19.9 µM; in the experiment with NCI/ADR-RES ovarian, 13.4 µM. Moreover, the TGI with OVCAR-3 ovarian was greater than 23 µM; in the experiment on OVCAR-4 ovarian, greater than 100 µM; with PC-3 prostate, greater than 100 µM; in the experiment with SNB-19 CNS, greater than 100 µM; in the experiment on SW-620 colon, greater than 100 µM; with T-47D breast, greater than 100 µM. Further, the TGI with UACC-257 melanoma was greater than 100 µM; in the experiment on UO-31 renal, greater than 91.1 µM.

In the case of `COC(=O)c1cc(O)c(O)c(O)c1-c1c(O)c(O)c(O)c(SC[C@H](NC(=O)OCc2ccccc2)C(=O)OCc2ccccc2)c1C(=O)OC`, the TGI in the experiment with ACHN renal was 61.1 µM; in the experiment on HS 578T breast, greater than 100 µM; in the experiment on IGROV1 ovarian, 84.2 µM; with K-562 leukemia, 70.2 µM; in the experiment with KM12 colon it was greater than 100 µM; with M14 melanoma, 36.8 µM. Also, the TGI is greater than 100 µM in the experiment with MALME-3M melanoma; 39 µM in the experiment on MDA-MB-231 breast; 43.4 µM in the experiment with MOLT-4 leukemia; 48.2 µM with NCI-H226 lung; 59.3 µM in the experiment with NCI-H522 lung; greater than 100 µM in the experiment with NCI/ADR-RES ovarian. Further, the TGI is greater than 100 µM in the experiment with OVCAR-3 ovarian; 89.9 µM in the experiment on OVCAR-4 ovarian; 62.7 µM in the experiment on PC-3 prostate; greater than 100 µM with SNB-19 CNS; 62.8 µM in the experiment on SW-620 colon; greater than 100 µM in the experiment on T-47D breast. For the same compound, in the experiment on UACC-257 melanoma, the TGI was greater than 100 µM.

Consider `COC(=O)c1ccc(C)cc1CC1Cc2cccc(C)c2C1=O` (stereo not drawn), for which the TGI is 97.6 µM in the experiment with ACHN renal; 39.9 µM with HS 578T breast; greater than 100 µM with IGROV1 ovarian; 9.79 µM with K-562 leukemia; 23 µM in the experiment with KM12 colon; 23.2 µM in the experiment with M14 melanoma. For the same compound, the TGI turned out to be 31.3 µM with MALME-3M melanoma; 51.9 µM with MDA-MB-231 breast; 18.4 µM in the experiment with MOLT-4 leukemia; 9.66 µM in the experiment on NCI-H226 lung; 6.57 µM in the experiment with NCI-H522 lung; 66.3 µM in the experiment with NCI/ADR-RES ovarian. Further, the TGI in the experiment on OVCAR-3 ovarian was 30.7 µM; with OVCAR-4 ovarian it was 95.8 µM; with PC-3 prostate, 64.8 µM; in the experiment with SNB-19 CNS, greater than 100 µM; in the experiment with SW-620 colon, greater than 100 µM; in the experiment with T-47D breast, 57.9 µM. In addition, the figures for the TGI in the experiment with UACC-257 melanoma and in the experiment with UO-31 renal were 47.9 µM and 56.7 µM, respectively.
